The values below are quoted from earlier work in patent US20040116402A1, “Superoxide dismutase mimics for the treatment of ocular disorders and diseases” (priority 2002, published 2004).

In data set [1] the test system is autoimmune diabetes by a diabetogenic T-cell clone. The settings on record: in a cloned cell (diabetogenic T-cell clone adoptive transfer).

With `CCN1C=CC=C/C1=C1/C2=NC(=C(c3cccc[n+]3CC)C3=NC(=C(c4cccc[n+]4CC)c4ccc([n-]4)C(c4cccc[n+]4CC)=C4C=CC1=N4)C=C3)C=C2.[Cl-].[Cl-].[Cl-].[Cl-].[Cl-].[Mn+3]` [AEOL10113], the onset of diabetes entry in data set [1] is listed as “delay the onset of diabetes”.
In the case of `CC1(C)CC(O)CC(C)(C)N1[O]` [4-hydroxy-2,2,6,6-tetramethylpiperidine-1-oxyl], in the data set on albino rats, the light-induced retinal damage entry is on record as “inhibited light-induced retinal damage”.
As for `[Cl-].[Cl-].[Mn+2].c1cc2nc(c1)CN[C@@H]1CCCC[C@H]1NCCN[C@@H]1CCCC[C@H]1NC2` [M40403], the “vascular and neural dysfunction” value with diabetic rats is “prevented vascular and neural dysfunction”.
